Experimental findings from patent US11434225B2, “Salts and solid state forms of plinabulin” (PLIVA HRVATSKA D.O.O., priority 2017, dated 2022) are described below.

Molecules are shown by their SMILES.

For the series the following is noted: solid state form.

In the case of `CC(C)(C)c1[nH]cnc1/C=c1\[nH]c(=O)/c(=C/c2ccccc2)[nH]c1=O` [Plinabulin Form G], the “stability upon exposure to humidity” value (upon exposure to humidity) is recorded as “shows stability”. Moreover, the stability upon heating result (upon heating) is “shows stability”.
